Test results reported in ChEMBL document CHEMBL4000201, “Benzylideneoxymorphone: A new lead for development of bifunctional mu/delta opioid receptor ligands” (Bioorg Med Chem Lett, 2017).

Columns and labels:
Mu-type opioid receptor = Mu-type opioid receptor (Homo sapiens, UniProt P35372); experiment: Displacement of [3H]DAMGO from human MOR expressed in CHO cells; format: cell-based
[1] = target: Delta-type opioid receptor (Homo sapiens, UniProt P41143); experiment: Displacement of [3H]DPDPE from human DOR expressed in CHO cells; format: cell-based
Delta-type opioid receptor, sequence (P41143 whole entry): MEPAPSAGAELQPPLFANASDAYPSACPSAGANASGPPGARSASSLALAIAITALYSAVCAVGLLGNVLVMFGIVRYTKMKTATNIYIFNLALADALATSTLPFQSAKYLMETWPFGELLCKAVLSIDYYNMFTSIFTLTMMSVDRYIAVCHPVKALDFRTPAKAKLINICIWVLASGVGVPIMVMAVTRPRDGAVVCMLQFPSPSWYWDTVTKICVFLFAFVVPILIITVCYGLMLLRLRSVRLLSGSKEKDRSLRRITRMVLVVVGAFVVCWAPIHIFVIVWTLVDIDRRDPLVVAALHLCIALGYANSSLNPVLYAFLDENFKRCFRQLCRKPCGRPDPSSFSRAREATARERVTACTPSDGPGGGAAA

Mus musculus [2] = experiment: Antinociceptive activity in Swiss-Webster mouse assessed as time required for peak effect at 60 mg/kg, sc after 30 mins measured every 20 mins for 90 mins by hot plate test; format: functional
Mus musculus [3] = experiment: Antinociceptive activity in Swiss-Webster mouse assessed as maximum possible effect at 20 to 60 mg/kg, sc after 30 mins measured every 20 mins for 90 mins by hot plate test; format: functional
[4] = Displacement of [3H]DPDPE from DOR in guinea pig brain membranes measured after 60 mins by scintillation counting method; format: cell membranes, Cavia porcellus, Membrane

Mu-type opioid receptor, sequence (P35372 whole entry): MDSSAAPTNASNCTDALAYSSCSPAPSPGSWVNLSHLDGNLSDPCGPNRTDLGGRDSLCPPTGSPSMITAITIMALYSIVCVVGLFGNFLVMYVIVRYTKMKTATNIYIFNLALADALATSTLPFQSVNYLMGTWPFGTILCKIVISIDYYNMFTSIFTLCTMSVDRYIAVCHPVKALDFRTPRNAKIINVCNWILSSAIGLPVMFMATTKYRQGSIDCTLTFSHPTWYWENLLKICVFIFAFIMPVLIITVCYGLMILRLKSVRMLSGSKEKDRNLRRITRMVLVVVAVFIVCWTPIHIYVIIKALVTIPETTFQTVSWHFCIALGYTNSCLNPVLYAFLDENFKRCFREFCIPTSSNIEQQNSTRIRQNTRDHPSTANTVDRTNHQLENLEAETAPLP

SMILES	Ki (Mu-type opioid receptor) [nM]	Ki [1] [nM]	Time (Mus musculus [2]) [min]	MPE (Mus musculus [3]) [%]	Ki [4] [nM]
O=C1/C(=C/c2ccccc2)C[C@@]2(O)[C@H]3Cc4ccc(O)c5c4[C@@]2(CCN3CCCc2ccccc2)[C@H]1O5	313	168	–	–	–
CN1CC[C@]23c4c5ccc(O)c4O[C@H]2C(=O)/C(=C/c2ccccc2)C[C@@]3(O)[C@H]1C5	17.5	14.4	50	40	–
O=C1/C(=C/c2ccccc2)C[C@@]2(O)[C@H]3Cc4ccc(O)c5c4[C@@]2(CCN3CC2CC2)[C@H]1O5 [BNTX]	–	–	–	–	6.2
